One assay addresses T1, TNKS1 (Homo sapiens, UniProt O95271).
T1 sequence (O95271 1-1327): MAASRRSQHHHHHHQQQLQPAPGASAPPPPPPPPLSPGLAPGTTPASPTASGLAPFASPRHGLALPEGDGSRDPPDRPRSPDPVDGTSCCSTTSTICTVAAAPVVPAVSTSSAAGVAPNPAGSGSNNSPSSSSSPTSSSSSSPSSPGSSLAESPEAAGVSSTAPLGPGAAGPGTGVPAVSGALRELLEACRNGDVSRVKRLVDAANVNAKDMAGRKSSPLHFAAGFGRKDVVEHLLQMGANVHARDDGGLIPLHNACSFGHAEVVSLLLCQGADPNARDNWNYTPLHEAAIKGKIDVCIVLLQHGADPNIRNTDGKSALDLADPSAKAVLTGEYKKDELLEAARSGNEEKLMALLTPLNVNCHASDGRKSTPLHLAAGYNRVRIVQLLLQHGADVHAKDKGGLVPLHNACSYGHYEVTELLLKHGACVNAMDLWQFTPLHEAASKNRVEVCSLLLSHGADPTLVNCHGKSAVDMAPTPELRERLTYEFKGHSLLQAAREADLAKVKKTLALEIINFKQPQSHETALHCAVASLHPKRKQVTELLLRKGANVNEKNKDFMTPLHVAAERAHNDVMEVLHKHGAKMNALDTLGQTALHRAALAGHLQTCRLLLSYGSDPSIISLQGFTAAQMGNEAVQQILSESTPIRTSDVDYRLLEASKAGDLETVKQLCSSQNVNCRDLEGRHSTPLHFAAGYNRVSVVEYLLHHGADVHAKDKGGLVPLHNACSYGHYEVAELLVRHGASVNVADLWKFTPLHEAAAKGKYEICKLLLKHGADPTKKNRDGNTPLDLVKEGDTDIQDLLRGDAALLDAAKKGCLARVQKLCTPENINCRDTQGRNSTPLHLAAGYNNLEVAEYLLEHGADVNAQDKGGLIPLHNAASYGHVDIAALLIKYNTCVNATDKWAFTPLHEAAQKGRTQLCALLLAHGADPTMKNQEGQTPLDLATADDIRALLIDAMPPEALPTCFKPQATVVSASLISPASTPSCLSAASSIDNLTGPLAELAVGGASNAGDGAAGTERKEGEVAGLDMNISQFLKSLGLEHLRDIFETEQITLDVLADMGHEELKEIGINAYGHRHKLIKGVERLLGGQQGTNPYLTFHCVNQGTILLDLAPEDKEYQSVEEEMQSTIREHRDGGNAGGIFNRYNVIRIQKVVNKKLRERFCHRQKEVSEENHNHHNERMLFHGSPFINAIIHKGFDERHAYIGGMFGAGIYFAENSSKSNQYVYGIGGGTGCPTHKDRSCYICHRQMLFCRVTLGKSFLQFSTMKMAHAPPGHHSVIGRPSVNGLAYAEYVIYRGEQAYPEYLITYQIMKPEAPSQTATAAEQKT
In words: TNKS1 Assay 1 (TNKS1 Histone Ribosylation Assay Kit, biotin-labeled NAD+). The following applies: chemiluminescent readout, 384 well. Type of assay: biochemical. On the procedure:
The potency of the compounds according to the invention was assessed by applying an in vitro inhibition assay. The TNKS1 catalyzed NAD^+-dependent ribosylation of a suitable protein substrate was detected using a commercially available biotin/streptavidin binding based assay format [TNKS1 Histone Ribosylation Assay Kit (Biotin-labeled NAD+), Catalog #80579; BPS Bioscience, San Diego, USA]. Here, the incorporation of a biotin-labeled NAD+ during the TNKS1 catalyzed ribosylation reaction was detected with a streptavidin-HRP coupled chemi-luminescent readout. The intensity of the readout signal is proportional to the incorporated NAD^+. Inhibition of TNKS1 leads to a decreased incorporation of NAD^+ and consequently to a lower readout signal intensity. The concentration of a test compound which inhibits the enzyme activity by 50% (corresponds to half of the normed readout signal intensity) is reported as IC50.
The assay was conducted in a 384 well MTP format according to the manufacturer's protocol [bpsbioscience.com/poly-adp-ribose-polymerase/assay-kit/tnks1-histone-ribosylation-assay-kit-biotin-labeled-nad-80579 referencing: Brown, J. A., Marala, R. B. J. Pharmacol. Toxicol. Methods 2002 47:137-41] and using a BMG Pherastar MTP reader [BMG-Labtech, Offenburg, Germany].

Assay [1] deals with HEK293 FOP control reporter cell line. In words: HEK293 FOP Assay (FOP control vector luciferase reporter). Type of assay: cell-based. The following applies: Homo sapiens. Put shortly:
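Stable HEK293 line carrying the FOP vector (randomized, non-functional TCF sites; Geneticin-selected) was run in parallel with the TOP line. Cells were plated 24 h ahead at 10000/well and given recombinant human Wnt-3a at 2500–5 ng/ml. Compounds were tested at 50 μM–15 nM (3.16-fold steps) in CAFTY buffer, pH 7.4, with 2 mM Ca2+ and 0.01% BSA.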

[2] abbreviates: HEK293 FOP control reporter cells, 16 hours, luciferase, dilution series from 50 μM.
[3] abbreviates: HEK293 FOP control reporter cell line, 16 hours incubation, compound dilution series 50 μM to 15 nM.

pIC50: −log10 of the molar value.

In the case of `CN(C)C(=O)c1nc[nH]c1C(=O)Nc1ccc(NC(=O)c2ccc(F)cc2Cl)cc1` [Example 24, N^5-{4-[(2-chloro-4-fluorobenzoyl)amino]phenyl}-N^4,N^4-dimethyl-1H-imidazole-4,5-dicarboxamide], the pIC50 against TNKS1 (Table 1) was 6.55; on TNKS1 (first table), 6.55; in assay [1] (setting [2]), no more than 4.30.

As for `CNC(=O)c1[nH]cnc1C(=O)Nc1ccc(NC(=O)c2cc(Cl)sc2Cl)cc1` [Example 213, N^4-(4-{[(2,5-dichloro-3-thienyl)carbonyl]amino}phenyl)-N^5-methyl-1H-imidazole-4,5-dicarboxamide], the pIC50 was less than 4.00 at TNKS1 (Table 1) and 5.08 in assay [1] (setting [3]).

`CNC(=O)c1nc[nH]c1C(=O)Nc1ccc(NC(=O)c2ccc(OCCN3CCN(C)CC3)cc2Cl)cc1` [Example 28, N^5-[4-({2-chloro-4-[2-(4-methylpiperazin-1-yl)ethoxy]benzoyl}amino)phenyl]-N^4-methyl-1H-imidazole-4,5-dicarboxamide]: the pIC50 was 7.15 on TNKS1 (Table 1), 7.15 against TNKS1 (first table), 4.44 in assay [1] (setting [3]) and 4.38 in assay [1] (setting [2]).

On to `CNC(=O)c1nc[nH]c1C(=O)Nc1ccc(NC(=O)c2ccccc2C)cc1` [Example 19, N^4-methyl-N^5-{4-[(2-methylbenzoyl)amino]phenyl}-1H-imidazole-4,5-dicarboxamide], for which the negative logarithm of the IC50 (pIC50) is 5.77 against TNKS1 (Table 1), 5.77 against TNKS1 (first table), 4.58 in assay [1] (setting [3]) and 4.96 in assay [1] (setting [2]).

On to `CNC(=O)c1nc[nH]c1C(=O)Nc1ccc(NC(=O)c2c(Cl)cccc2Cl)cc1` [Example 26, N^5-{4-[(2,6-dichlorobenzoyl)amino]phenyl}-N^4-methyl-1H-imidazole-4,5-dicarboxamide], for which the values for the pIC50 (against TNKS1 (Table 1); at TNKS1 (first table); in assay [1] (setting [2])) were 6.39, 6.40 and no more than 4.30, respectively.

On to `CNC(=O)c1nc[nH]c1C(=O)Nc1ccc(NC(=O)c2ccc(F)cc2Cl)cc1` [Example 12, N^5-{4-[(2-chloro-4-fluorobenzoyl)amino]phenyl}-N^4-methyl-1H-imidazole-4,5-dicarboxamide], for which the pIC50 is 7.70 against TNKS1 (Table 1), 7.70 on TNKS1 (first table) and no more than 4.30 in assay [1] (setting [2]).

Take `CC(C)NC(=O)c1ncoc1C(=O)Nc1ccc(NC(=O)c2ccc(F)cc2Cl)cc1` [Example 15, N^5-{4-[(2-chloro-4-fluorobenzoyl)amino]phenyl}-N^4-isopropyl-1,3-oxazole-4,5-dicarboxamide]: the pIC50 on TNKS1 (Table 1) was 6.05; against TNKS1 (first table), 6.05; in assay [1] (setting [2]) it was no more than 4.30.

On to `CNC(=O)c1nc[nH]c1C(=O)Nc1ccc(NC(=O)c2cccc(Cl)c2Cl)cc1` [Example 1, N^5-{4-[(2,3-dichlorobenzoyl)amino]phenyl}-N^4-methyl-1H-imidazole-4,5-dicarboxamide], for which the pIC50 was 6.00 against TNKS1 (Table 1), 6.00 on TNKS1 (first table), 4.62 in assay [1] (setting [3]) and 4.60 in assay [1] (setting [2]).

For the molecule `CNC(=O)c1nc[nH]c1C(=O)Nc1ccc(NC(=O)c2ccc(OCCN(C)C)cc2Cl)cc1` [Example 25, N^5-[4-({2-chloro-4-[2-(dimethylamino)ethoxy]benzoyl}amino)phenyl]-N^4-methyl-1H-imidazole-4,5-dicarboxamide], the pIC50 was 7.15 at TNKS1 (Table 1), 7.15 at TNKS1 (first table), 4.47 in assay [1] (setting [3]) and 4.47 in assay [1] (setting [2]).

For `CNC(=O)c1nc[nH]c1C(=O)Nc1ccc(NC(=O)c2ccc(Cl)cc2Cl)cc1` [Example 9, N^5-{4-[(2,4-dichlorobenzoyl)amino]phenyl}-N^4-methyl-1H-imidazole-4,5-dicarboxamide], the pIC50 against TNKS1 (Table 1) was 6.96; against TNKS1 (first table) it was 6.96; in assay [1] (setting [3]), 4.50; in assay [1] (setting [2]), 4.40.

As for `COC(=O)c1ncoc1C(=O)Nc1ccc(NC(=O)c2ccc(F)cc2Cl)cc1` [Example 14, Methyl 5-({4-[(2-chloro-4-fluorobenzoyl)amino]phenyl}carbamoyl)-1,3-oxazole-4-carboxylate], the pIC50 is 6.38 at TNKS1 (Table 1), 6.38 against TNKS1 (first table) and no more than 4.30 in assay [1] (setting [2]).

`CNC(=O)c1nc[nH]c1C(=O)Nc1ccc(NC(=O)c2ccc(F)cc2)cc1` [Example 20, N^5-{4-[(4-fluorobenzoyl)amino]phenyl}-N^4-methyl-1H-imidazole-4,5-dicarboxamide]: the pIC50 on TNKS1 (Table 1) was 5.77; on TNKS1 (first table) it was 5.77; in assay [1] (setting [3]), 4.39; in assay [1] (setting [2]), 4.51.

`CC(C)NC(=O)c1nc[nH]c1C(=O)Nc1ccc(NC(=O)c2ccc(F)cc2Cl)cc1` [Example 10, N^5-{4-[(2-chloro-4-fluorobenzoyl)amino]phenyl}-N^4-isopropyl-1H-imidazole-4,5-dicarboxamide]: the pIC50 at TNKS1 (Table 1) is 6.51; on TNKS1 (first table) it was 6.51; in assay [1] (setting [3]), 4.34; in assay [1] (setting [2]), no more than 4.30.

`CNC(=O)c1nc[nH]c1C(=O)Nc1ccc(NC(=O)c2ccc(F)cc2Cl)c(C)c1` [Example 5, N^5-{4-[(2-chloro-4-fluorobenzoyl)amino]-3-methylphenyl}-N^4-methyl-1H-imidazole-4,5-dicarboxamide]: the pIC50 was 6.49 at TNKS1 (Table 1), 6.49 against TNKS1 (first table), 4.96 in assay [1] (setting [3]) and 4.96 in assay [1] (setting [2]).

Turning to `CNC(=O)c1nc[nH]c1C(=O)Nc1ccc(NC(=O)c2ccc(F)cc2Cl)nc1` [Example 16, N^5-{6-[(2-chloro-4-fluorobenzoyl)amino]pyridin-3-yl}-N^4-methyl-1H-imidazole-4,5-dicarboxamide], the pIC50 was 7.15 at TNKS1 (Table 1), 7.15 on TNKS1 (first table) and no more than 4.30 in assay [1] (setting [2]).

In the case of `CNC(=O)c1ncoc1C(=O)Nc1ccc(NC(=O)c2ccc(F)cc2Cl)cc1` [Example 11, N^5-{4-[(2-chloro-4-fluorobenzoyl)amino]phenyl}-N^4-methyl-1,3-oxazole-4,5-dicarboxamide], the figures for the pIC50 (at TNKS1 (Table 1); in assay [1] (setting [2])) were 6.66 and no more than 4.30, respectively.

`CNC(=O)c1nc[nH]c1C(=O)Nc1ccc(NC(=O)c2ccc(N(C)C)cc2Cl)cc1` [Example 4, N^5-(4-{[2-chloro-4-(dimethylamino)benzoyl]amino}phenyl)-N^4-methyl-1H-imidazole-4,5-dicarboxamide]: the pIC50 was 6.92 at TNKS1 (Table 1), 6.92 against TNKS1 (first table), 4.38 in assay [1] (setting [3]) and 4.38 in assay [1] (setting [2]).

In the case of `O=C(Nc1ccc(NC(=O)c2[nH]cnc2C(=O)NCC(F)(F)F)cc1)c1ccc(F)cc1Cl` [Example 30, N^4-{4-[(2-chloro-4-fluorobenzoyl)amino]phenyl}-N^5-(2,2,2-trifluoroethyl)-1H-imidazole-4,5-dicarboxamide], the pIC50 is 6.85 against TNKS1 (Table 1), 6.85 on TNKS1 (first table) and 4.43 in assay [1] (setting [2]).

For the origin of these results see patent US9884063B2, “Amido-substituted azole compounds” (Bayer Pharma Aktiengesellschaft, priority 2014, dated 2018).
